This passage reports IC50 results from patent US9370515B2, “Mixed lineage kinase inhibitors and method of treatments” (CALIFIA BIO, INC., priority 2013, dated 2016).

Some results are limits rather than exact numbers.

Sequence of MLK-3 (Q16584 whole entry): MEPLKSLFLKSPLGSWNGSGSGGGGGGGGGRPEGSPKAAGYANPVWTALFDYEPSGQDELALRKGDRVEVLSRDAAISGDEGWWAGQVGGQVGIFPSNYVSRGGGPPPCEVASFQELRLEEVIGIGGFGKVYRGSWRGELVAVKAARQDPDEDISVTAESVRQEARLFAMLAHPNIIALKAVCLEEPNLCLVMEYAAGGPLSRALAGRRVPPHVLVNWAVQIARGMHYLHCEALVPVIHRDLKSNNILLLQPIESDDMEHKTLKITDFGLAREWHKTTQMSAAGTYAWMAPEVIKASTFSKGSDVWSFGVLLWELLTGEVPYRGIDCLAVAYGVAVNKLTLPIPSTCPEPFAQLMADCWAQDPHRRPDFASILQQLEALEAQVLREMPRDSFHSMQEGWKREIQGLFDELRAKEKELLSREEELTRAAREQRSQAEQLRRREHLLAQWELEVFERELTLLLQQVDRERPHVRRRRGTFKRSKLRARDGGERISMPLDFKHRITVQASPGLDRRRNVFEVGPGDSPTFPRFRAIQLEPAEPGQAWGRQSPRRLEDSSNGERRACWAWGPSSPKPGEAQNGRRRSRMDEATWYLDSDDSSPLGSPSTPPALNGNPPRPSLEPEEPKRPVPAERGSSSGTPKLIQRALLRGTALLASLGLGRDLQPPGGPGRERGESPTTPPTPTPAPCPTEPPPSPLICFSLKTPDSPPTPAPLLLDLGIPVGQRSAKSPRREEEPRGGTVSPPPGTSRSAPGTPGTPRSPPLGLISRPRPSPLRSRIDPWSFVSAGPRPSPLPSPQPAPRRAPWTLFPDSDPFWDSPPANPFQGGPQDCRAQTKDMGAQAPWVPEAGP

The experiment concerns the target MLK-3 (Homo sapiens, UniProt Q16584). In words: Biochemical assay for the inhibition of kinase activity for MLK-3 (33P-ATP, HOTSPOT filter binding). Particulars: activated MLK-3 20 nM, ATP 50 μM, myelin basic protein 20 μM, 20 minutes room temperature. How it is done: Biochemical Assay for the Inhibition of Kinase Activity for MLK-3: Myelin basic protein (20 μM final concentration) is dissolved in 20 mM Hepes (pH 7.5) containing […], […], 0.02% Brij35, 0.02 mg/ml BSA, 0.1 μM Na3VO4, 2 mM DTT, and 1% DMSO. Activated MLK-3 is added and mixed (20 nM final concentration), and inhibitors are added in DMSO. ^33P-ATP (specific activity 500 μCi/μL) is delivered into the reaction mixture to initiate the reaction (ATP concentration is 50 μM) and the mixture is incubated at room temperature for 20 minutes. % Activity is determined using a proprietary HOTSPOT™ microfluidic filter binding technology. See, Expert Opin. Drug Discov. 2008 June; 3(6): 607-621.
On to `COc1ccc(Nc2ccc3ncc(-c4cc5cc(C)ccc5s4)n3n2)cc1OC` [Compound 191, N-(3,4-dimethoxyphenyl)-3-(5-methylbenzo[b]thiophen-2-yl)imidazo[1,2-b]pyridazin-6-amine], for which the IC50 is under 5000 nM.
The compound `COc1ccc(Nc2ccc3ncc(-c4ccc5[nH]ccc5c4)n3n2)cc1OC` [Compound 53, 3-(1H-indol-5-yl)-N-(3,4-dimethoxyphenyl)imidazo[1,2-b]pyridazin-6-amine] returned a half-maximal inhibitory concentration (IC50) of 500 to 1000 nM.
`COc1cc(Nc2ccc3ncc(-c4cc5cccc(OC)c5s4)n3n2)ccc1OC(F)F` [Compound 183, N-(4-(difluoromethoxy)-3-methoxyphenyl)-3-(7-methoxybenzo[b]thiophen-2-yl)imidazo[1,2-b]pyridazin-6-amine]: the IC50 is under 5000 nM.
As for `Oc1cccc(-c2cnc3ccc(N[C@H]4CC[C@H](O)CC4)nn23)c1` [Compound 101, trans-3-(6-(4-hydroxycyclohexylamino)imidazo[1,2-b]pyridazin-3-yl)phenol], the figure is under 5000 nM; as for `c1cc2cc(-c3ccc4ncc(-c5ccc6[nH]ccc6c5)n4n3)ccc2[nH]1` [Compound 50, 3,6-di(1H-indol-5-yl)imidazo[1,2-b]pyridazine], 100 to 500 nM.
`COc1ccc(N(C)c2ccc3ncc(-c4cc5cc(OC)c(OC)cc5s4)n3n2)cc1OC` [Compound 75, 3-(5,6-dimethoxybenzo[b]thiophen-2-yl)-N-(3,4-dimethoxyphenyl)-N-methylimidazo[1,2-b]pyridazin-6-amine] registered a concentration for half-maximal inhibition (IC50) of 100 to 500 nM.
Consider `COc1cccc2cc(-c3cnc4ccc(N[C@H]5CC[C@H](O)CC5)nn34)[nH]c12` [Compound 87, trans-4-(3-(7-methoxy-1H-indol-2-yl)imidazo[1,2-b]pyridazin-6-ylamino)cyclohexanol], for which the IC50 was under 100 nM.
As for `COc1cc(Nc2ccc3ncc(-c4cc5ccccc5s4)n3n2)ccn1` [Compound 34, 3-(benzo[b]thiophen-2-yl)-N-(2-methoxypyridin-4-yl)imidazo[1,2-b]pyridazin-6-amine], the figure is under 5000 nM; as for `CC(CO)CCNc1ccc2ncc(-c3cc4ccccc4s3)n2n1` (stereo not shown) [Compound 138, 4-(3-(benzo[b]thiophen-2-yl)imidazo[1,2-b]pyridazin-6-ylamino)-2-methylbutan-1-ol], 100 to 500 nM; as for `COc1cc2cc(-c3cnc4ccc(N[C@H]5CC[C@](C)(O)CC5)nn34)sc2cc1OC` [Compound 173, (1r,4r)-4-(3-(5,6-dimethoxybenzo[b]thiophen-2-yl)imidazo[1,2-b]pyridazin-6-ylamino)-1-methylcyclohexanol], under 100 nM.
With `O[C@H]1CC[C@H](Nc2ccc3ncc(-c4cc5ncccc5s4)n3n2)CC1` [Compound 209, trans-4-(3-(thieno[3,2-b]pyridin-2-yl)imidazo[1,2-b]pyridazin-6-ylamino)cyclohexanol], the 50% inhibitory concentration (IC50) lay within 500 to 1000 nM.
Regarding `COc1cncc2cc(-c3cnc4ccc(N[C@H]5CC[C@H](O)CC5)nn34)sc12` [Compound 213, trans-4-(3-(7-methoxythieno[3,2-c]pyridin-2-yl)imidazo[1,2-b]pyridazin-6-ylamino)cyclohexanol], the IC50 is under 100 nM.
Then `OCCCCNc1ccc2ncc(-c3cc4ccccc4s3)n2n1` [Compound 110, 4-(3-(benzo[b]thiophen-2-yl)imidazo[1,2-b]pyridazin-6-ylamino)butan-1-ol], with 100 to 500 nM.
Then `CN1CCN(Cc2cccc(-c3ccc4ncc(-c5cc6ccccc6s5)n4n3)c2)CC1` [Compound 40, 3-(benzo[b]thiophen-2-yl)-6-(3-((4-methylpiperazin-1-yl)methyl)phenyl)imidazo[1,2-b]pyridazine], with under 5000 nM; and `COc1ccc2sc(-c3cnc4ccc(Nc5ccc(OC)c(OC)c5)nn34)cc2c1` [Compound 167, 3-(5-methoxybenzo[b]thiophen-2-yl)-N-(3,4-dimethoxyphenyl)imidazo[1,2-b]pyridazin-6-amine], with 100 to 500 nM.
`O=c1cccc(Nc2ccc3ncc(-c4cc5ccccc5s4)n3n2)[nH]1` [Compound 45, 6-(3-(benzo[b]thiophen-2-yl)imidazo[1,2-b]pyridazin-6-ylamino)pyridin-2-ol] returned an IC50 of under 5000 nM.
Regarding `COc1ccc(Nc2ccc3ncc(-c4cc5cccc(C)c5[nH]4)n3n2)cc1OC` [Compound 195, N-(3,4-dimethoxyphenyl)-3-(7-methyl-1H-indol-2-yl)imidazo[1,2-b]pyridazin-6-amine], the half-inhibitory concentration (IC50) is under 5000 nM.
For the compound `COc1cc(Nc2ccc3ncc(-c4cc5ccccc5s4)n3n2)ccc1OC(C)C` [Compound 30, 3-(benzo[b]thiophen-2-yl)-N-(4-isopropoxy-3-methoxyphenyl)imidazo[1,2-b]pyridazin-6-amine], the IC50 is under 5000 nM.
Then `COc1ccc(Nc2ccc3ncc(-c4cc(OC)c(OC)c(OC)c4)n3n2)cc1OC` [Compound 11, 3-(3,4,5-trimethoxyphenyl)-N-(3,4-dimethoxyphenyl)imidazo[1,2-b]pyridazin-6-amine], with under 5000 nM; and `Cc1cncc2cc(-c3cnc4ccc(N[C@H]5CC[C@H](O)CC5)nn34)sc12` [Compound 215, trans-4-(3-(7-methylthieno[3,2-c]pyridin-2-yl)imidazo[1,2-b]pyridazin-6-ylamino)cyclohexanol], with under 100 nM.
In the case of `COc1ccc2cc(-c3cnc4ccc(N[C@H]5CC[C@H](O)CC5)nn34)ccc2c1` [Compound 163, trans-4-(3-(2-methoxynaphthalen-6-yl)imidazo[1,2-b]pyridazin-6-ylamino)cyclohexanol], the IC50 was in the range of 500 to 1000 nM.
Regarding `COc1ccc(Nc2ccc3ncc(-c4cc5ccccc5s4)n3n2)cc1C(=O)O` [Compound 43, 5-(3-(benzo[b]thiophen-2-yl)imidazo[1,2-b]pyridazin-6-ylamino)-2-methoxybenzoic acid], the IC50 lay within 500 to 1000 nM.
As to `CC(C)Oc1cccc2cc(-c3cnc4ccc(N[C@H]5CC[C@H](O)CC5)nn34)sc12` [Compound 178, trans-4-(3-(7-isopropoxybenzo[b]thiophen-2-yl)imidazo[1,2-b]pyridazin-6-ylamino)cyclohexanol], the concentration for half-maximal inhibition (IC50) lay in the range of 100 to 500 nM.
In turn, `COc1cc2cc(-c3cnc4ccc(-c5ccc6[nH]ccc6c5)nn34)sc2cc1OC` [Compound 69, 6-(1H-indol-5-yl)-3-(5,6-dimethoxybenzo[b]thiophen-2-yl)imidazo[1,2-b]pyridazine] displayed a half-maximal inhibitory concentration (IC50) of under 100 nM.
Then `OCCCCNc1ccc2ncc(-c3ccc4ccccc4c3)n2n1` [Compound 160, 4-(3-(naphthalen-3-yl)imidazo[1,2-b]pyridazin-6-ylamino)butan-1-ol], with 500 to 1000 nM; and `OC[C@@H]1CCCN1c1ccc2ncc(-c3cc4ccccc4s3)n2n1` [Compound 127, ((S)-1-(3-(benzo[b]thiophen-2-yl)imidazo[1,2-b]pyridazin-6-yl)pyrrolidin-2-yl)methanol], with under 5000 nM.
Then `COc1cc2cc(-c3cnc4ccc(-c5cccc(CN6CCN(C)CC6)c5)nn34)sc2cc1OC` [Compound 74, 3-(5,6-dimethoxybenzo[b]thiophen-2-yl)-6-(3-((4-methylpiperazin-1-yl)methyl)phenyl)imidazo[1,2-b]pyridazine], with 500 to 1000 nM; and `Cc1ccc2sc(-c3cnc4ccc(N[C@H]5CC[C@H](O)CC5)nn34)cc2c1` [Compound 192, trans-4-(3-(5-methylbenzo[b]thiophen-2-yl)imidazo[1,2-b]pyridazin-6-ylamino)cyclohexanol], with 500 to 1000 nM.

As a reminder, the IC50 is the concentration that inhibits the measured activity by half.
